Data on 10 compounds can be found in patent publication US20230139171A1 (SITA Information Networking Computing UK Limited, priority 2019, published 2023).

Common to all, as to format: cell-based
One assay concerns the target T1, human TLR9 (Homo sapiens, UniProt Q9NR96).
T1 construct: host or cells: HEK-Blue cells
T1 sequence (Q9NR96 26-1032): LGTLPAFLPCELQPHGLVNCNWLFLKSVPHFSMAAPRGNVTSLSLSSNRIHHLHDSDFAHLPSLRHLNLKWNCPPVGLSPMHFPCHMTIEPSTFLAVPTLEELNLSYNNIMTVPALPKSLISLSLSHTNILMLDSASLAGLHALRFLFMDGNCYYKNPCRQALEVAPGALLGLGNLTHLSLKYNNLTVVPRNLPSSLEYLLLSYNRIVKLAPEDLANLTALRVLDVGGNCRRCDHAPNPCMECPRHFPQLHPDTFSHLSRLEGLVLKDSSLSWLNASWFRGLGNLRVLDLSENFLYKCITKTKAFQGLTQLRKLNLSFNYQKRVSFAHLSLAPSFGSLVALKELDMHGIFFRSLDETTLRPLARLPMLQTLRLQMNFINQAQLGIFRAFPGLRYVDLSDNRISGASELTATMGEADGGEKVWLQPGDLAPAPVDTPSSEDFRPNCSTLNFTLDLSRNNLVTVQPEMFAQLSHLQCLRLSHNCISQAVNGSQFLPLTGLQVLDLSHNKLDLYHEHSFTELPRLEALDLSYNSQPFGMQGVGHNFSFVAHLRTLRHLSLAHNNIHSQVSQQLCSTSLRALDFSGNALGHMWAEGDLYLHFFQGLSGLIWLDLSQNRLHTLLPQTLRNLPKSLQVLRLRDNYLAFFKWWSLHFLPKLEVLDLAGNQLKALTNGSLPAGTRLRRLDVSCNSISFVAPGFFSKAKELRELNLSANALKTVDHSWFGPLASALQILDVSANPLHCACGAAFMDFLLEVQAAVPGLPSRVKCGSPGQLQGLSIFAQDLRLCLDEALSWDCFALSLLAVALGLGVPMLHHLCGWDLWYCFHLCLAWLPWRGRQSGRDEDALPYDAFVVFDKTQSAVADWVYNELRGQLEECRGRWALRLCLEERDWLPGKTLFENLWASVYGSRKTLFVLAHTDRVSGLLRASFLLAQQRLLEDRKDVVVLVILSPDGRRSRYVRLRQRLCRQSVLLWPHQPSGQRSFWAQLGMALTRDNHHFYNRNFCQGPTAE
Kind of assay: TLR9 inhibition reporter assay (HEK-Blue cells, SEAP reporter, ODN2006 stimulation). The settings on record: HEK-Blue cells overexpressing human TLR9, SEAP reporter, ODN2006 5 nM. The method in brief: (§1)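 Compound treatment: 30 min, RT, 0.05 nM–50 μM final. Agonist: TLR7 gardiquimod 7.5 μM; TLR8 R848 15.9 μM; TLR9 ODN2006 5 nM. Incubation 22 h, 37 °C, 5% CO2. Readout SEAP, HEK-Blue Detection.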
(A reporter such as luciferase makes a cellular process visible.)

The target of the next assay is T2, human TLR7 (Homo sapiens, UniProt Q9NYK1).
T2 construct: host or cells: HEK-Blue cells
T2 sequence (Q9NYK1 27-1049): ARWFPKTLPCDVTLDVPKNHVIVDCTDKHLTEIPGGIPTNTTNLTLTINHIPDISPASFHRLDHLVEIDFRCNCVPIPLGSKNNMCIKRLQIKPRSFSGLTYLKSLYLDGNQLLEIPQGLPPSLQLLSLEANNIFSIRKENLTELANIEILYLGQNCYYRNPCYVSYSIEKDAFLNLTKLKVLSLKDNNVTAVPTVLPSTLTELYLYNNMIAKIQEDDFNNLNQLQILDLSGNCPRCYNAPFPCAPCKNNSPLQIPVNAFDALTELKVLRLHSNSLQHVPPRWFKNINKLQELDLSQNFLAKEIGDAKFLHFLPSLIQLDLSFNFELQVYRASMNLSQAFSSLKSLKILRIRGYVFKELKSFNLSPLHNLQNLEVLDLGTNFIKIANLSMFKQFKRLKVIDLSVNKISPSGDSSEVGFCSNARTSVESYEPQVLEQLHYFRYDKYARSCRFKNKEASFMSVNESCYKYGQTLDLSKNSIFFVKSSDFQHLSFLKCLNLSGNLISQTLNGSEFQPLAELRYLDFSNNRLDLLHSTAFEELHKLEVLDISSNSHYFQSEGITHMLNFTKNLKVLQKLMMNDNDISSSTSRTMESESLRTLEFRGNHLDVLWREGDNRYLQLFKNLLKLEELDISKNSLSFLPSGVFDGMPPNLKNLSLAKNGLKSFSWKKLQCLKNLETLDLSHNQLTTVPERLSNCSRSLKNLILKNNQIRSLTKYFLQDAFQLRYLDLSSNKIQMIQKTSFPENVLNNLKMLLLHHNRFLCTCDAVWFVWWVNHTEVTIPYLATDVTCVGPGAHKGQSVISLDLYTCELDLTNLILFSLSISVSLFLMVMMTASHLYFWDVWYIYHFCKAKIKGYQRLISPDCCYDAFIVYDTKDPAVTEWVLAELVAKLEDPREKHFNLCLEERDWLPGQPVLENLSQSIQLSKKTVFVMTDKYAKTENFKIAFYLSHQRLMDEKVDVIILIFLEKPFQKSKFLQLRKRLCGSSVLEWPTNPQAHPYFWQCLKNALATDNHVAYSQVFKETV
Kind of assay: TLR7 inhibition reporter assay (HEK-Blue cells, SEAP reporter, gardiquimod stimulation). The settings on record: HEK-Blue cells overexpressing human TLR7, SEAP reporter, gardiquimod 7.5 μM; read-out: TLR7 IC50. The method in brief: as §1

The target of the next assay is T3, human TLR8 (Homo sapiens, UniProt Q9NR97).
T3 construct: host or cells: HEK-Blue cells
T3 sequence (Q9NR97 27-1041): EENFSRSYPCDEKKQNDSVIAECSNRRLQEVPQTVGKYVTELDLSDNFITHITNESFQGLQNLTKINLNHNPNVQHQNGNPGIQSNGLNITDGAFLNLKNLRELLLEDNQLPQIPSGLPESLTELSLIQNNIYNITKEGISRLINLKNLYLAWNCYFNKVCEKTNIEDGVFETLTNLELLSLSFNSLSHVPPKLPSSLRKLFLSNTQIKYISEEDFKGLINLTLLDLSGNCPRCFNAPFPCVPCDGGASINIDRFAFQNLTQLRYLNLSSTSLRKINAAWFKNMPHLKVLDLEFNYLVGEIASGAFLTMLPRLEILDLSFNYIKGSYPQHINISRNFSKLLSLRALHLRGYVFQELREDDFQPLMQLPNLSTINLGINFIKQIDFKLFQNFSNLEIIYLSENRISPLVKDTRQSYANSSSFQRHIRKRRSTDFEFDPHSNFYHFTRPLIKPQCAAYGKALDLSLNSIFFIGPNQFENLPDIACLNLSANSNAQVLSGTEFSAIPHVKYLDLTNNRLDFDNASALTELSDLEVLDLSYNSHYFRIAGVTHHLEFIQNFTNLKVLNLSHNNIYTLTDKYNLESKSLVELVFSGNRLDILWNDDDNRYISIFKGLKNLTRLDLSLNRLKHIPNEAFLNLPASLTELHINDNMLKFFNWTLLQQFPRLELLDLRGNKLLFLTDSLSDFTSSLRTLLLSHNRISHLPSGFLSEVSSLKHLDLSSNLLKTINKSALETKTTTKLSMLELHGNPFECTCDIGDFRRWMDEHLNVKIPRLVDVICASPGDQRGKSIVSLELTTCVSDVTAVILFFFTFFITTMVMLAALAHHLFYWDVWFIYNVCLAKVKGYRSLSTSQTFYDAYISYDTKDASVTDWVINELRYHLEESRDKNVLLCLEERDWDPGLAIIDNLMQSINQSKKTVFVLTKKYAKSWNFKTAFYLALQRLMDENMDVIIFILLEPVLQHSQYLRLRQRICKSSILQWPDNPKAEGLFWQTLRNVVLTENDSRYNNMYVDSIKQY
In words: TLR8 inhibition reporter assay (HEK-Blue cells, SEAP reporter, R848 stimulation). The settings on record: HEK-Blue cells overexpressing human TLR8, SEAP reporter, R848 15.9 μM; read-out: TLR8 IC50. The method in brief: as §1

Structures are written as SMILES.

A word on the IC50: it is the concentration that gives 50% inhibition. Take `CC(C)c1c(-c2cn(C)c3ncccc23)[nH]c2sc(C3CCC(N4CC5(COC5)C4)CC3)nc12` (single isomer, unassigned) [Example 181, 6-(4-(6-isopropyl-5-(1-methyl-1H-pyrrolo[2,3-b]pyridin-3-yl)-4H-pyrrolo[3,2-d]thiazol-2-yl)cyclohexyl)-2-oxa-6-azaspiro[3.3]heptane]: the IC50 turned out to be 5660 nM against human TLR9, 9.92 nM on human TLR7 and 36 nM on human TLR8.
Taken in the same sequence, the figures for `CC(C)c1c(-c2cn(C)c3ncccc23)[nH]c2sc(C3CCC(NCC(C)(C)O)CC3)nc12` (single isomer, unassigned) [Example 182, 1-((4-(6-isopropyl-5-(1-methyl-1H-pyrrolo[2,3-b]pyridin-3-yl)-4H-pyrrolo[3,2-d]thiazol-2-yl)cyclohexyl)amino)-2-methylpropan-2-ol] were 13500 nM, 1.74 nM and 0.76 nM.
Taken in the same sequence, the figures for `CC(C)c1c(-c2cn(C)c3ncccc23)[nH]c2sc(C3CCC(NCC(C)(C)O)CC3)nc12` (single isomer, unassigned) [Example 183, 1-((4-(6-isopropyl-5-(1-methyl-1H-pyrrolo[2,3-b]pyridin-3-yl)-4H-pyrrolo[3,2-d]thiazol-2-yl)cyclohexyl)amino)-2-methylpropan-2-ol] were 6790 nM, 8.89 nM and 9.41 nM.
On to `Cc1c(-c2[nH]c3sc(C4CCC(NC5COC5)CC4)nc3c2C(C)C)cn2ncnc2c1C` (single isomer, unassigned) [Example 184, N-(4-(5-(7,8-dimethyl-[1,2,4]triazolo[1,5-a]pyridin-6-yl)-6-isopropyl-4H-pyrrolo[3,2-d]thiazol-2-yl)cyclohexyl)oxetan-3-amine], for which the IC50 against human TLR9 came out at 11400 nM; at human TLR7 it was 1.01 nM; at human TLR8, 0.84 nM.
Taken in the same sequence, the figures for `Cc1c(-c2[nH]c3sc(C4CCC(NC5COC5)CC4)nc3c2C(C)C)cn2ncnc2c1C` (single isomer, unassigned) [Example 185, N-(4-(5-(7,8-dimethyl-[1,2,4]triazolo[1,5-a]pyridin-6-yl)-6-isopropyl-4H-pyrrolo[3,2-d]thiazol-2-yl)cyclohexyl)oxetan-3-amine] were 23000 nM, 7.42 nM and 3.38 nM.
Taken in the same sequence, the figures for `COC(C)(C)CNC1CCC(c2nc3c(C(C)C)c(-c4cn5ncnc5c(C)c4C)[nH]c3s2)CC1` (single isomer, unassigned) [Example 186, 4-(5-(7,8-dimethyl-[1,2,4]triazolo[1,5-a]pyridin-6-yl)-6-isopropyl-4H-pyrrolo[3,2-d]thiazol-2-yl)-N-(2-methoxy-2-methylpropyl)cyclohexan-1-amine] were 5920 nM, 1.59 nM and 0.21 nM.
Taken in the same sequence, the figures for `COC(C)(C)CNC1CCC(c2nc3c(C(C)C)c(-c4cn5ncnc5c(C)c4C)[nH]c3s2)CC1` (single isomer, unassigned) [Example 187, 4-(5-(7,8-dimethyl-[1,2,4]triazolo[1,5-a]pyridin-6-yl)-6-isopropyl-4H-pyrrolo[3,2-d]thiazol-2-yl)-N-(2-methoxy-2-methylpropyl)cyclohexan-1-amine] were 8720 nM, 10.4 nM and 4.25 nM.
Regarding `COC1CN(C2CCC(c3nc4c(C(C)C)c(-c5cn6ncnc6c(C)c5C)[nH]c4s3)CC2)C1` (single isomer, unassigned) [Example 188, 5-(7,8-dimethyl-[1,2,4]triazolo[1,5-a]pyridin-6-yl)-6-isopropyl-2-(4-(3-methoxyazetidin-1-yl)cyclohexyl)-4H-pyrrolo[3,2-d]thiazole], the IC50 against human TLR9 was 10800 nM; on human TLR7, 0.71 nM; on human TLR8, 0.58 nM.
Turning to `COC1CN(C2CCC(c3nc4c(C(C)C)c(-c5cn6ncnc6c(C)c5C)[nH]c4s3)CC2)C1` (single isomer, unassigned) [Example 189, 5-(7,8-dimethyl-[1,2,4]triazolo[1,5-a]pyridin-6-yl)-6-isopropyl-2-(4-(3-methoxyazetidin-1-yl)cyclohexyl)-4H-pyrrolo[3,2-d]thiazole], the IC50 against human TLR9 was 10000 nM; on human TLR7, 3.35 nM; on human TLR8, 5.18 nM.
Taken in the same sequence, the figures for `CCN(C)C1CCC(c2nc3c(C(C)C)c(-c4cn5ncnc5c(C)c4C)[nH]c3s2)CC1` (single isomer, unassigned) [Example 190, 4-(5-(7,8-dimethyl-[1,2,4]triazolo[1,5-a]pyridin-6-yl)-6-isopropyl-4H-pyrrolo[3,2-d]thiazol-2-yl)-N-ethyl-N-methylcyclohexan-1-amine] were 8350 nM, 0.8 nM and 0.58 nM.
